Key:
[1] = Cytotoxicity against human MDA435/LCC6 cells; format: functional, cell-based; conditions: MDA-435/LCC6
[2] = system: HCT-116; assay: Cytotoxicity against CD133 positive human HCT116 cells; format: functional, cell-based
[3] = system: MCF7; assay: Cytotoxicity against human paclitaxel-resistant MCF7 cells after 72 hrs by MTT assay; format: functional, cell-based; conditions: MCF7, 72 h
[4] = system: MCF7; assay: Cytotoxicity against human MCF7 cells; format: functional, cell-based
[5] = system: A121; assay: Cytotoxicity against human A121 cells; format: functional, cell-based
[6] = system: A549; assay: Cytotoxicity against human A549 cells; format: functional, cell-based
[7] = Cytotoxicity against human CD133/CD44 positive PPT2 cells assessed as cell death at 0.01 to 10 uM after 72 hrs by MTT assay; format: functional
[8] = Cytotoxicity against human CD133/CD44 positive PC3MM2 cells assessed as cell death at 0.01 to 10 uM after 72 hrs by MTT assay; format: functional

SMILES | IC50 [2] [nM] | IC50 [3] [nM] | also measured
CC(=O)O[C@H]1C(=O)[C@@]2(C)[C@H]([C@@H]3OC(=O)c4ccccc4OC/C=C/CC[C@H](NC(=O)OC(C)(C)C)[C@@H](O)C(=O)O[C@H]4C[C@]3(O)C(C)(C)C1=C4C)[C@]1(OC(C)=O)CO[C@@H]1C[C@@H]2O |  |  | IC50 [1]: 390 nM
CC(=O)O[C@@]12CO[C@@H]1C[C@H](O)[C@@]1(C)C(=O)[C@H](OC(=O)N(C)C)C3=C(C)[C@@H](OC(=O)[C@H](O)[C@H](C=C(C)C)NC(=O)OC(C)(C)C)C[C@@](O)([C@@H](OC(=O)c4ccccc4)[C@H]21)C3(C)C | 0.83 |  | 
CCC(=O)O[C@H]1C(=O)[C@@]2(C)[C@H]([C@H](OC(=O)c3cccc(OC)c3)[C@]3(O)C[C@H](OC(=O)[C@H](O)[C@H](C=C(C)C)NC(=O)OC(C)(C)C)C(C)=C1C3(C)C)[C@]1(OC(C)=O)CO[C@@H]1C[C@@H]2O |  | 21.7 | 
CC(=O)O[C@H]1C(=O)[C@@]2(C)[C@H]([C@H](OC(=O)c3ccccc3)[C@]3(O)C[C@H](OC(=O)[C@H](O)[C@@H](NC(=O)c4ccccc4)c4ccccc4)C(C)=C1C3(C)C)[C@]1(OC(C)=O)CO[C@@H]1C[C@@H]2O [PACLITAXEL] | 33.8 |  | 
CC[C@@]1(O)C(=O)OCc2c1cc1n(c2=O)Cc2cc3c(CN(C)C)c(O)ccc3nc2-1 [TOPOTECAN] | 451 |  | 
CC(=O)O[C@@]12CO[C@@H]1C[C@H](O)[C@@]1(C)C(=O)[C@H](OC(=O)C3CC3)C3=C(C)[C@@H](OC(=O)[C@H](O)[C@H](C=C(C)C)NC(=O)OC(C)(C)C)C[C@@](O)([C@@H](OC(=O)c4ccccc4)[C@H]21)C3(C)C | 0.28 | 80.5 | 
CC(=O)O[C@H]1C(=O)[C@@]2(C)[C@H]([C@H](OC(=O)C=C(C)C)[C@]3(O)C[C@H](OC(=O)[C@H](O)[C@H](C=C(C)C)NC(=O)OC(C)(C)C)C(C)=C1C3(C)C)[C@]1(OC(C)=O)CO[C@@H]1C[C@@H]2O |  |  | IC50 [4]: 0.9 nM; IC50 [5]: 0.9 nM; IC50 [6]: 0.9 nM
CO[C@]12C=C[C@](C)(O1)[C@@H](OC(=O)/C=C/c1cn(C)cn1)C[C@H]1C(C)=CC[C@H](C(C)C)[C@H]1/C=C\2CO[C@@H]1OC[C@@H](O)[C@@H](O)[C@@H]1OC(C)=O [ELEUTHEROBIN] |  |  | Activity [7]: 60%; Activity [8]: 60%
CC(=O)O[C@@]12CO[C@@H]1C[C@H](O)[C@@]1(C)C(=O)[C@H](OC(=O)N(C)C)C3=C(C)[C@@H](OC(=O)[C@H](O)[C@H](C=C(C)C)NC(=O)OC(C)(C)C)C[C@@](O)([C@@H](OC(=O)c4cccc(C)c4)[C@H]21)C3(C)C | 0.24 |  | 
CC(=O)O[C@H]1C(=O)[C@@]2(C)[C@H]([C@H](OC(=O)c3ccccc3)[C@]34OC(=O)O[C@H]3[C@H](OC(=O)[C@H](O)[C@H](C=C(C)C)NC(=O)OC(C)(C)C)C(C)=C1C4(C)C)[C@]1(OC(C)=O)CO[C@@H]1C[C@@H]2O |  | 66.7 | 
CC(=O)O[C@@]12CO[C@@H]1C[C@H](O)[C@@]1(C)C(=O)[C@H](OC(=O)N(C)C)C3=C(C)[C@@H](OC(=O)[C@H](O)[C@H](C=C(C)C)NC(=O)OC(C)(C)C)C[C@@](O)([C@@H](OC(=O)c4cccc(OC(F)(F)F)c4)[C@H]21)C3(C)C |  | 31.4 | 
CC(=O)O[C@H]1C(=O)[C@@]2(C)[C@H]([C@H](OC(=O)c3cccc(OC(F)(F)F)c3)[C@]3(O)C[C@H](OC(=O)[C@H](O)[C@H](C=C(C)C)NC(=O)OC(C)(C)C)C(C)=C1C3(C)C)[C@]1(OC(C)=O)CO[C@@H]1C[C@@H]2O |  | 19 | 
CN(Cc1cnc2nc(N)nc(N)c2n1)c1ccc(C(=O)N[C@@H](CCC(=O)O)C(=O)O)cc1 [METHOTREXATE] | 32.7 |  | 
CC(=O)O[C@@]12CO[C@@H]1C[C@H](O)[C@@]1(C)C(=O)[C@H](OC(=O)C3CC3)C3=C(C)[C@@H](OC(=O)[C@H](O)[C@H](C=C(C)C)NC(=O)OC(C)(C)C)C[C@@](O)([C@@H](OC(=O)c4cccc(OC(F)(F)F)c4)[C@H]21)C3(C)C |  | 34.9 | 
CC(=O)O[C@@]12CO[C@@H]1C[C@H](O)[C@@]1(C)C(=O)[C@H](OC(=O)N(C)C)C3=C(C)[C@@H](OC(=O)[C@H](O)[C@H](C=C(F)F)NC(=O)OC(C)(C)C)C[C@@](O)([C@@H](OC(=O)c4ccccc4)[C@H]21)C3(C)C | 0.14 |  | 
COc1cccc2c1C(=O)c1c(O)c3c(c(O)c1C2=O)C[C@@](O)(C(=O)CO)C[C@@H]3O[C@H]1C[C@H](N)[C@H](O)[C@H](C)O1 [DOXORUBICIN] | 78 |  | 
